Laboratory results reported in US11771694B2, “Arylamide compounds for treatment and prevention of viral infections” (priority 2020, dated 2023).
Values after ≈ are worked out from the molar mass of the structure shown. Values joined by “and” are separate entries in the source; they are usually repeats but may differ in a detail not shown here. Identical values can stand only once. Like-named read-outs stand apart in the source and are kept apart here.

Legend:
[1] = system: SARS-CoV-2 (Washington strain 2019-nCoV/USA-WA1/2020); experiment: microbe, parasite or virus in culture; assay type: cell-based; conditions: Severe acute respiratory syndrome coronavirus 2, Vero
SARS-CoV-2 [2] = assay type: cell-based; conditions: Calu-3; MOI 0.05; 24 hpi
[3] = system: luciferase-expressing pseudotyped virus (rVSV) containing the SARS-CoV-2 spike protein; assay type: cell-based
[4] = system: SARS-CoV-2 spike pseudotyped luciferase virus; assay type: cell-based
[5] = system: Venezuelan equine encephalitis virus (VEEV) TC83; assay type: cell-based; conditions: U87MG cells; 10 μM; virus treated only; 24 hpi
human PDE3A = human PDE3A (Homo sapiens, UniProt Q14432); experiment: PDE-Glo phosphodiesterase assay, PDE3A; assay type: biochemical; conditions: 1 μM cAMP substrate; read-out: IC50, inhibition of human PDE3A
[6] = system: LPS-induced MCP-1 release; experiment: LPS-induced MCP-1 release, NR8383 cells, ELISA; assay type: cell-based; conditions: Rattus norvegicus, 8-hour exposure, read-out: IC50, inhibition of LPS-induced MCP-1 release
LPS-induced IL-6 release = experiment: LPS-induced IL-6 release, NR8383 cells, ELISA; assay type: cell-based; conditions: Rattus norvegicus, 8-hour exposure, read-out: IC50, inhibition of LPS-induced IL-6 release
[7] = system: LPS-induced IL-1β release; experiment: LPS-induced IL-1β release, NR8383 cells, ELISA; assay type: cell-based; conditions: Rattus norvegicus, 8-hour exposure, read-out: IC50, inhibition of LPS-induced IL-1β release
[8] = system: LPS-induced CINC-3 release; experiment: LPS-induced CINC-3 release, NR8383 cells, ELISA; assay type: cell-based; conditions: Rattus norvegicus, 8-hour exposure, read-out: IC50, inhibition of LPS-induced CINC-3 release
[9] = system: LPS-induced TNF-α release; experiment: LPS-induced TNF-α release, THP-1 cells, ELISA; assay type: cell-based; conditions: Homo sapiens, 8-hour exposure, read-out: IC50, inhibition of LPS-induced TNF-α release
[10] = system: Ulcerative Proctosigmoiditis/Ulcerative Proctitis (UP/UPS); experiment: Phase 2 study CTIX-BRI-206 in Ulcerative Proctosigmoiditis/Ulcerative Proctitis; assay type: in vivo, human
Description: Inflammatory biomarkers IL-1β and IL-6 were reduced in colonic tissue biopsies collected at Week 6 (Day 42) compared to those biopsies collected at baseline (FIG. 20, Panel B).

[11] = system: dextran sulfate sodium (DSS) induced colitis; experiment: Mouse DSS colitis model; assay type: in vivo, mice
Entero. faecalis = experiment: Broth microdilution MIC; assay type: cell-based; conditions: Enterococcus faecalis; Entero. faecalis; 2-3 isolates/organism; read-out: MIC
Entero. faecium (VRE) = experiment: Broth microdilution MIC; assay type: cell-based; conditions: Enterococcus faecium; Entero. faecium (VRE); 2-3 isolates/organism; read-out: MIC
Strept. agalactiae = experiment: Broth microdilution MIC; assay type: cell-based; conditions: Streptococcus agalactiae; Strept. agalactiae; 2-3 isolates/organism; read-out: MIC
Strept. pneumoniae = experiment: Broth microdilution MIC; assay type: cell-based; conditions: Streptococcus pneumoniae; Strept. pneumoniae; 2-3 isolates/organism; read-out: MIC
Strept. pyogenes = experiment: Broth microdilution MIC; assay type: cell-based; conditions: Streptococcus pyogenes; Strept. pyogenes; 2-3 isolates/organism; read-out: MIC
Citrobacter fruendi = experiment: Broth microdilution MIC; assay type: cell-based; conditions: Citrobacter fruendi; 2-3 isolates/organism; read-out: MIC
Citrobacter koseri = experiment: Broth microdilution MIC; assay type: cell-based; conditions: 2-3 isolates/organism, read-out: MIC
Escherichia coli = experiment: Broth microdilution MIC; assay type: cell-based; conditions: 2-3 isolates/organism, read-out: MIC
Klebsiella pneumoniae = experiment: Broth microdilution MIC; assay type: cell-based; conditions: 2-3 isolates/organism, read-out: MIC
Pseud. aeruginosa = experiment: Broth microdilution MIC; assay type: cell-based; conditions: Pseudomonas aeruginosa; Pseud. aeruginosa; 2-3 isolates/organism; read-out: MIC
S. aureus = experiment: microbe, parasite or virus in culture; assay type: cell-based; conditions: Staphylococcus aureus; value marked * = MIC90
SARS-CoV-2 [12] = experiment: SARS-CoV-2 testing in Caco-2 cells and primary lung fibroblasts; assay type: cell-based; conditions: Caco-2 cells and primary lung fibroblasts from human donors; data not shown
[13] = system: mammalian cells (RBCs, 3T3, HepG2); assay type: cell-based
[14] = system: SARS-CoV-2 (Washington strain 2019-nCoV/USA-WA1/2020); conditions: Vero; direct assay; 10 μM; 24 hpi
SARS-CoV-2 [15] = conditions: Calu-3; 10 μM; 24 hpi
[16] = system: human erythrocytes (RBCs)
[17] = system: embryonic mouse cell line (NIH/3T3)
[18] = system: human liver cell line (HepG2)
in vitro = conditions: African green monkey
[19] = system: S. aureus and coagulase-negative staphylococci; experiment: Broth microdilution MIC, defined phenotypes in Staphylococcus species
[20] = brilacidin 400 mg/kg, 5-ASA 50 mg/kg per rectum, vs DSS-treated control group, end of study

human PDE3A, sequence (Q14432 whole entry): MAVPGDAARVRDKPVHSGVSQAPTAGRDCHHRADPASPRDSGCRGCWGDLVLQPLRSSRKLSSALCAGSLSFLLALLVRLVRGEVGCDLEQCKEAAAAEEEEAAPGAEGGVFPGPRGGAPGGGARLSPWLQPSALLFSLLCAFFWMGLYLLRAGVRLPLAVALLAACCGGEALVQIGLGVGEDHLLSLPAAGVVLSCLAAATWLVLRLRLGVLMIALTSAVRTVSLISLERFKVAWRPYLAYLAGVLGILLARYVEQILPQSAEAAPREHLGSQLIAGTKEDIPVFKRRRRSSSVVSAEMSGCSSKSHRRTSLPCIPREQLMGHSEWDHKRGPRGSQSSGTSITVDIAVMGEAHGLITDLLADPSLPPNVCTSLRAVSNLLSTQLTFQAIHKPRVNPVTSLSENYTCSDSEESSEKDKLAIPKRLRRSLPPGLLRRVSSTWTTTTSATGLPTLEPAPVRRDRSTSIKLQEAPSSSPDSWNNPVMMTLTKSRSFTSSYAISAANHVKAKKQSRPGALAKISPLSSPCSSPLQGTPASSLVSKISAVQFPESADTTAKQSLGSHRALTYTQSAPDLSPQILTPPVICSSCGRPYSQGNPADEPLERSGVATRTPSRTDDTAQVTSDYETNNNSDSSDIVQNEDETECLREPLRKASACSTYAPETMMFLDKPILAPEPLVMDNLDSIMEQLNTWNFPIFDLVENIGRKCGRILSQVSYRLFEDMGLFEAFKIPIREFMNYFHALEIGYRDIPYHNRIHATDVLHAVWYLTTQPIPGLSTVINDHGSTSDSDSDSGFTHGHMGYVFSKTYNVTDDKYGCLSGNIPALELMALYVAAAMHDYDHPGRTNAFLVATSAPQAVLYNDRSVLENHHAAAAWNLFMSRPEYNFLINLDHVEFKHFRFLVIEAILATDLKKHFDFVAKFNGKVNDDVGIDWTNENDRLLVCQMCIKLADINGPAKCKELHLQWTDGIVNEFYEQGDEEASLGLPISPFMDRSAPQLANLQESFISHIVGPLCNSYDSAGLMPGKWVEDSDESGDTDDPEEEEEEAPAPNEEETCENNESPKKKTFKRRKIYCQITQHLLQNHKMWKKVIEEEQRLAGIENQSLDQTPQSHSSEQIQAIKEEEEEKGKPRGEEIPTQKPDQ

N=C(N)NCCCCC(=O)Nc1cc(C(F)(F)F)cc(NC(=O)c2cc(C(=O)Nc3cc(C(F)(F)F)cc(NC(=O)CCCCNC(=N)N)c3OC3CCNC3)ncn2)c1OC1CCNC1 (stereo not shown) [brilacidin]
inhibition at 10 µM ([1]; read-out: inhibition of SARS-CoV-2 (plaque assay)): 72%
inhibition at 10 µM ([1]; read-out: inhibition of infectious viral titer): 53%
inhibition of infectious titer, each drug alone (SARS-CoV-2 [2]): up to 90%
intracellular spike protein signal [3]: decreased intracellular spike protein signal
inhibition (luciferase activity) vs vehicle control ([4]; 0.1 μg/ml): 29%
inhibition (luciferase activity) vs vehicle control ([4]; 100 μg/ml): 85%
infectious viral titer compared to the DMSO-control [5]: statistically significant reduction
IC50 (human PDE3A): ~1800 nM and 1800 nM
IC50 [6]: 750 nM
IC50 (LPS-induced IL-6 release): 274 nM
IC50 [7]: 702 nM
IC50 [8]: 425 nM
IC50 [9]: 23400 nM
inflammatory biomarkers IL-1β and IL-6 in colonic tissue biopsies ([10]; Week 6 (Day 42) compared to baseline): reduced
clinical remission (with Endoscopic response), subjects ([10]; each cohort (50 mg, 100 mg, 200 mg daily retention enema), after 6 weeks): > 50%
rectal bleeding ([11]; 400 mg/kg per rectum Days 7-11, by Day 11 vs DSS-treated control group): significant decrease
stool consistency ([11]; 400 mg/kg per rectum Days 7-11, vs DSS-treated control group): significantly more firm
mean reduction in IL-1β in distal colon tissue [11, 20]: 27%
mean reduction in IL-6 in distal colon tissue [11, 20]: 40%
MIC (Entero. faecalis): 1 µg/mL (≈ 1.07 µM)
MIC (Entero. faecium (VRE)): 1 µg/mL (≈ 1.07 µM)
MIC (Strept. agalactiae): 2 µg/mL (≈ 2.13 µM)
MIC (Strept. pneumoniae): 4 to 8 µg/mL (≈ 4.27 to 8.54 µM)
MIC (Strept. pyogenes): 1 to 4 µg/mL (≈ 1.07 to 4.27 µM)
MIC (Citrobacter fruendi): 2 to 4 µg/mL (≈ 2.13 to 4.27 µM)
MIC (Citrobacter koseri): 1 to 2 µg/mL (≈ 1.07 to 2.13 µM)
MIC (Escherichia coli): 1 to 2 µg/mL (≈ 1.07 to 2.13 µM)
MIC (Klebsiella pneumoniae): 1 to 2 µg/mL (≈ 1.07 to 2.13 µM)
MIC (Pseud. aeruginosa): 32 µg/mL (≈ 34.2 µM)
MIC90 (S. aureus): 1 µg/mL (≈ 1.07 µM)
inhibitory properties in ACE2 positive cell lines (SARS-CoV-2 [12]): supported brilacidin's inhibitory properties
folds more selective than natural HDPs [13]: 50 to 100 folds
decrease in the viral genomic copies [14]: 29%
decrease in the viral genomic copies (SARS-CoV-2 [15]): 33%
toxicity in Calu-3 cells (Calu-3 cells; 10 and 20 μM, 24 hours): nontoxic
CC10 (90% viability) (Calu-3 cells; Calu-3, 24 hpt, Hill model fit): 26800 nM
Selectivity (EC50/MIC) RBCs [16]: 558
Selectivity (EC50/MIC) 3T3 [17]: 430
Selectivity (EC50/MIC) HepG2 [18]: 1,031
CC50 (in vitro): 79500 ± 2420 nM
Brilacidin MIC ([19]; DAP-NS, OXA-R, 5 isolates): 0.5-2
Brilacidin MIC ([19]; Drug-Susceptible, 217 isolates): 0.25-1
Brilacidin MIC ([19]; LZD, OXA-R, 5 isolates): 0.5-1
Brilacidin MIC ([19]; OXA-R, 161 isolates): 0.25-2
Brilacidin MIC ([19]; VRSA/VISA, DAP-NS, OXA-R, 3 isolates): 0.5-1
Brilacidin MIC ([19]; VRSA/VISA, OXA-R, 7 isolates): 0.5-1
